From publication PMC5218480 (PLoS ONE, 2017)

Test system: MV-4-11 cells
Assay: Gene expression microarray analysis (Affymetrix PrimeView) and GSEA
Type: cell-based, human
Set-up: RFU PODN (11730768_x_at) / Fold change /veh PODN (11730768_x_at) / RFU LINC00158 (11744669_a_at) / Fold change /veh LINC00158 (11744669_a_at) / RFU DUSP10 (11751237_a_at) / Fold change /veh DUSP10 (11751237_a_at) / RFU ID3 (11757404_x_at) / Fold change /veh ID3 (11757404_x_at) / RFU PLEKHG5 (11737974_s_at) / Fold change /veh PLEKHG5 (11737974_s_at) / RFU LRRC4B (11730491_at) / Fold change /veh LRRC4B (11730491_at) / RFU GIMAP4 (11747438_a_at) / Fold change /veh GIMAP4 (11747438_a_at) / RFU KRT8 (11758183_x_at) / Fold change /veh KRT8 (11758183_x_at) / RFU CNN1 (11734310_a_at) / Fold change /veh CNN1 (11734310_a_at) / RFU VPS37D (11726825_at) / Fold change /veh VPS37D (11726825_at) / RFU C10orf10 (11716522_x_at) / Fold change /veh C10orf10 (11716522_x_at) / RFU KIR2DL2 /// KIR2DL4 /// KIR2DL5A /// KIR2DL5B /// KIR2DS1 /// KIR2DS2 /// KIR2DS3 /// KIR2DS4 /// KIR3DL3 /// KIR3DL3 /// KIR3DS1 (11738374_at) / Fold change /veh KIR2DL2 /// KIR2DL4 /// KIR2DL5A /// KIR2DL5B /// KIR2DS1 /// KIR2DS2 /// KIR2DS3 /// KIR2DS4 /// KIR3DL3 /// KIR3DL3 /// KIR3DS1 (11738374_at) / RFU C1QL1 (11718748_at) / Fold change /veh C1QL1 (11718748_at) / RFU TMPRSS4 (11747572_a_at) / Fold change /veh TMPRSS4 (11747572_a_at) / RFU HAMP (11756126_x_at) / Fold change /veh HAMP (11756126_x_at) / RFU RNFT2 (11725882_a_at) / Fold change /veh RNFT2 (11725882_a_at) / RFU NR4A2 (11747474_a_at) / Fold change /veh NR4A2 (11747474_a_at) / RFU ABCC12 (11746883_a_at) / Fold change /veh ABCC12 (11746883_a_at) / RFU TMEM136 (11760407_x_at) / Fold change /veh TMEM136 (11760407_x_at) / RFU CLDN22 /// WWC2 (11732394_at) / Fold change /veh CLDN22 /// WWC2 (11732394_at) / RFU HLA-DPB1 (11760878_x_at) / Fold change /veh HLA-DPB1 (11760878_x_at) / RFU SPINT1 (11716480_a_at) / Fold change /veh SPINT1 (11716480_a_at) / RFU GAP43 (11754022_s_at) / Fold change /veh GAP43 (11754022_s_at) / RFU A4GNT (11735810_at) / Fold change /veh A4GNT (11735810_at) / RFU PRB3 (11715151_x_at) / Fold change /veh PRB3 (11715151_x_at) / RFU TUBB4B (11761932_at) / Fold change /veh TUBB4B (11761932_at) / RFU CAPN14 (11732068_a_at) / Fold change /veh CAPN14 (11732068_a_at) / RFU TMCC2 (11721928_a_at) / Fold change /veh TMCC2 (11721928_a_at) / RFU IRGQ (11745062_a_at) / Fold change /veh IRGQ (11745062_a_at) / RFU FAM174B (11720279_a_at) / Fold change /veh FAM174B (11720279_a_at) / RFU TMPRSS4 (11748680_a_at) / Fold change /veh TMPRSS4 (11748680_a_at) / RFU FAM212B (11763350_a_at) / Fold change /veh FAM212B (11763350_a_at) / RFU PLEKHG5 (11743358_a_at) / Fold change /veh PLEKHG5 (11743358_a_at) / RFU ZSCAN30 (11745921_a_at) / Fold change /veh ZSCAN30 (11745921_a_at) / RFU CMKLR1 (11741424_a_at) / Fold change /veh CMKLR1 (11741424_a_at) / RFU LOC101060620 /// MAPK8IP1 (11723275_at) / Fold change /veh LOC101060620 /// MAPK8IP1 (11723275_at) / RFU SPTSSB (11747773_x_at) / Fold change /veh SPTSSB (11747773_x_at) / RFU PRSS12 (11739890_at) / Fold change /veh PRSS12 (11739890_at) / RFU BIN1 (11741810_x_at) / Fold change /veh BIN1 (11741810_x_at) / RFU WNT11 (11732464_a_at) / Fold change /veh WNT11 (11732464_a_at) / RFU C10orf10 (11716521_a_at) / Fold change /veh C10orf10 (11716521_a_at) / RFU C5orf56 (11738089_at) / Fold change /veh C5orf56 (11738089_at) / RFU CYB561 (11721691_x_at) / Fold change /veh CYB561 (11721691_x_at) / RFU ANKRD19P (11752326_a_at) / Fold change /veh ANKRD19P (11752326_a_at) / RFU OR2T12 /// OR2T33 /// OR2T8 (11738714_s_at) / Fold change /veh OR2T12 /// OR2T33 /// OR2T8 (11738714_s_at) / RFU VCAN (11748164_a_at) / Fold change /veh VCAN (11748164_a_at) / RFU JSRP1 (11732532_at) / Fold change /veh JSRP1 (11732532_at) / RFU KRTAP10-11 (11738290_x_at) / Fold change /veh KRTAP10-11 (11738290_x_at) / RFU MYO3A (11730013_a_at) / Fold change /veh MYO3A (11730013_a_at) / RFU EBF3 (11725865_a_at) / Fold change /veh EBF3 (11725865_a_at) / RFU CAMK2N1 (11719241_x_at) / Fold change /veh CAMK2N1 (11719241_x_at) / RFU C5orf56 (11738088_a_at) / Fold change /veh C5orf56 (11738088_a_at) / RFU OLFML3 (11715873_a_at) / Fold change /veh OLFML3 (11715873_a_at) / RFU LOC100653217 /// NTM (11731650_a_at) / Fold change /veh LOC100653217 /// NTM (11731650_a_at) / RFU MAPK11 (11762145_a_at) / Fold change /veh MAPK11 (11762145_a_at) / RFU FIZ1 (11724087_x_at) / Fold change /veh FIZ1 (11724087_x_at) / RFU OASL (11726364_x_at) / Fold change /veh OASL (11726364_x_at) / RFU SOX15 (11748057_x_at) / Fold change /veh SOX15 (11748057_x_at) / RFU CD79A (11719716_a_at) / Fold change /veh CD79A (11719716_a_at) / RFU HIST1H1D (11736915_at) / Fold change /veh HIST1H1D (11736915_at) / RFU CASKIN2 (11723855_a_at) / Fold change /veh CASKIN2 (11723855_a_at) / RFU LOC730098 (11760151_x_at) / Fold change /veh LOC730098 (11760151_x_at) / RFU OR4N2 (11742367_at) / Fold change /veh OR4N2 (11742367_at) / RFU PRRT2 (11749266_a_at) / Fold change /veh PRRT2 (11749266_a_at) / RFU SNX32 (11753110_a_at) / Fold change /veh SNX32 (11753110_a_at) / RFU CDHR5 (11726645_a_at) / Fold change /veh CDHR5 (11726645_a_at) / RFU RCAN1 (11760418_a_at) / Fold change /veh RCAN1 (11760418_a_at) / RFU FAM167A (11723789_a_at) / Fold change /veh FAM167A (11723789_a_at) / RFU FAM26E (11764081_at) / Fold change /veh FAM26E (11764081_at) / RFU ISYNA1 (11749810_s_at) / Fold change /veh ISYNA1 (11749810_s_at) / RFU ACY1 (11761880_at) / Fold change /veh ACY1 (11761880_at) / RFU 11764098_at / Fold change /veh 11764098_at / RFU SAMD14 (11745864_x_at) / Fold change /veh SAMD14 (11745864_x_at) / RFU NPB (11741838_a_at) / Fold change /veh NPB (11741838_a_at) / RFU TMPRSS6 (11731388_a_at) / Fold change /veh TMPRSS6 (11731388_a_at) / RFU KRTAP10-2 (11738614_at) / Fold change /veh KRTAP10-2 (11738614_at) / RFU ARHGAP8 /// PRR5-ARHGAP8 (11727945_x_at) / Fold change /veh ARHGAP8 /// PRR5-ARHGAP8 (11727945_x_at) / RFU KRTAP5-7 /// NADSYN1 (11734609_at) / Fold change /veh KRTAP5-7 /// NADSYN1 (11734609_at) / RFU RASL12 (11751679_a_at) / Fold change /veh RASL12 (11751679_a_at) / RFU CDKN2B (11736163_a_at) / Fold change /veh CDKN2B (11736163_a_at) / RFU PRF1 (11729649_at) / Fold change /veh PRF1 (11729649_at) / RFU, ZNF638 /// ZNF638-IT1 / Fold change vs veh, ZNF638 /// ZNF638-IT1 / RFU, PANK3 / Fold change vs veh, PANK3 / RFU, SH3YL1 / Fold change vs veh, SH3YL1 / RFU, ZEB2 / Fold change vs veh, ZEB2 / RFU, NRIP1 / Fold change vs veh, NRIP1 / RFU, PTTG1IP / Fold change vs veh, PTTG1IP / RFU, CAPN2 / Fold change vs veh, CAPN2 / RFU, MED14 / Fold change vs veh, MED14 / RFU, SNORA58 / Fold change vs veh, SNORA58 / RFU, C1orf63 / Fold change vs veh, C1orf63 / RFU, LRRFIP1 / Fold change vs veh, LRRFIP1 / RFU, NDUFAF7 / Fold change vs veh, NDUFAF7 / RFU, SLC12A2 / Fold change vs veh, SLC12A2 / RFU, IBTK / Fold change vs veh, IBTK / RFU, ESF1 / Fold change vs veh, ESF1 / Fold change vs veh, TMEM50B / RFU, TAOK1 / Fold change vs veh, TAOK1 / RFU, ACBD3 / Fold change vs veh, ACBD3 / RFU, TMA16 / Fold change vs veh, TMA16 / RFU, RWDD3 / Fold change vs veh, RWDD3 / RFU, BCAT1 / Fold change vs veh, BCAT1 / RFU, EDEM3 / Fold change vs veh, EDEM3 / RFU, TMEM33 / Fold change vs veh, TMEM33 / RFU, WDR75 / Fold change vs veh, WDR75 / RFU, AHCTF1 / Fold change vs veh, AHCTF1 / RFU, TFRC / Fold change vs veh, TFRC / RFU, ZDHHC17 / Fold change vs veh, ZDHHC17 / RFU, NOM1 / Fold change vs veh, NOM1 / RFU, ARL8B / Fold change vs veh, ARL8B / RFU, ZBTB11 / Fold change vs veh, ZBTB11 / RFU, TAMM41 / Fold change vs veh, TAMM41 / RFU, KIAA1704 /// LOC100996395 / Fold change vs veh, KIAA1704 /// LOC100996395 / RFU, ING1 / Fold change vs veh, ING1 / RFU, TRMT61B / Fold change vs veh, TRMT61B / RFU, FUBP3 / Fold change vs veh, FUBP3 / RFU, TP53 / Fold change vs veh, TP53 / RFU, TNKS2 / Fold change vs veh, TNKS2 / RFU, ZFP14 / Fold change vs veh, ZFP14 / RFU, ACTR2 / Fold change vs veh, ACTR2 / RFU, PPP3R1 / Fold change vs veh, PPP3R1 / RFU, PIK3R1 / Fold change vs veh, PIK3R1 / RFU, HNRNPA1 / Fold change vs veh, HNRNPA1 / RFU, RNF170 / Fold change vs veh, RNF170 / RFU, ZNF28 / Fold change vs veh, ZNF28 / RFU, RNGTT / Fold change vs veh, RNGTT / RFU, OGT / Fold change vs veh, OGT / RFU, BRD1 / Fold change vs veh, BRD1 / RFU, MARS / Fold change vs veh, MARS / RFU, ZNF655 / Fold change vs veh, ZNF655 / RFU, FAHD1 / Fold change vs veh, FAHD1 / RFU, BDP1 / Fold change vs veh, BDP1 / RFU, LRRCC1 / Fold change vs veh, LRRCC1 / RFU, ARID1A / Fold change vs veh, ARID1A / RFU, ZNF146 / Fold change vs veh, ZNF146 / RFU, ZNF330 / Fold change vs veh, ZNF330 / RFU, GPN3 / Fold change vs veh, GPN3 / RFU, C9orf123 / Fold change vs veh, C9orf123 / RFU, N4BP2L2 / Fold change vs veh, N4BP2L2 / RFU, ARFIP1 / Fold change vs veh, ARFIP1 / RFU, FAM179B / Fold change vs veh, FAM179B / RFU, BCL10 / Fold change vs veh, BCL10 / RFU, UHRF1BP1L / Fold change vs veh, UHRF1BP1L / RFU, BET1 / Fold change vs veh, BET1 / RFU, CNOT2 / Fold change vs veh, CNOT2 / RFU, ZNF268 / Fold change vs veh, ZNF268 / Fold change vs veh, ZNF507 / RFU, DGCR2 / Fold change vs veh, DGCR2 / RFU, WDSUB1 / Fold change vs veh, WDSUB1 / Fold change vs veh, HSP90B1 /// MIR3652 / RFU, ADSS / Fold change vs veh, ADSS / RFU, GK / Fold change vs veh, GK / RFU, ZNF148 / Fold change vs veh, ZNF148 / RFU, TAF9 / Fold change vs veh, TAF9 / RFU, SLC1A5 / Fold change vs veh, SLC1A5 / RFU, SLMO2 / Fold change vs veh, SLMO2 / RFU, ABCC4 / Fold change vs veh, ABCC4 / RFU, LOC101060439 /// RAP1B / Fold change vs veh, LOC101060439 /// RAP1B / RFU, RFX7 / Fold change vs veh, RFX7 / RFU, GTPBP10 / Fold change vs veh, GTPBP10 / RFU, CNEP1R1 / Fold change vs veh, CNEP1R1 / RFU, BIVM-ERCC5 /// ERCC5 / Fold change vs veh, BIVM-ERCC5 /// ERCC5 / RFU, ILF3 / Fold change vs veh, ILF3 / RFU 11762660_at / Fold change /veh 11762660_at / RFU VCAN (11757783_s_at) / Fold change /veh VCAN (11757783_s_at) / RFU DDX43 (11728927_at) / Fold change /veh DDX43 (11728927_at) / RFU KRT8 (11758188_x_at) / Fold change /veh KRT8 (11758188_x_at) / RFU NKD1 (11759106_at) / Fold change /veh NKD1 (11759106_at) / RFU SRD5A1 (11742802_a_at) / Fold change /veh SRD5A1 (11742802_a_at) / RFU TPSAB1 /// TPSB2 (11721975_s_at) / Fold change /veh TPSAB1 /// TPSB2 (11721975_s_at) / RFU GSTM3 (11746129_a_at) / Fold change /veh GSTM3 (11746129_a_at) / RFU IL23R (11737362_x_at) / Fold change /veh IL23R (11737362_x_at) / RFU TMEM51 (11727254_a_at) / Fold change /veh TMEM51 (11727254_a_at) / RFU PIWIL2 (11732686_x_at) / Fold change /veh PIWIL2 (11732686_x_at) / RFU ORM1 (11744905_x_at) / Fold change /veh ORM1 (11744905_x_at) / RFU CCDC152 (11743942_at) / Fold change /veh CCDC152 (11743942_at) / RFU ECM1 (11717891_a_at) / Fold change /veh ECM1 (11717891_a_at) / RFU IL23R (11748794_a_at) / Fold change /veh IL23R (11748794_a_at) / RFU TNFAIP8L3 (11732012_x_at) / Fold change /veh TNFAIP8L3 (11732012_x_at) / RFU MBOAT4 (11741988_at) / Fold change /veh MBOAT4 (11741988_at) / RFU 11764193_at / Fold change /veh 11764193_at / RFU TMEM53 (11763286_at) / Fold change /veh TMEM53 (11763286_at) / RFU MAGEB2 (11727129_at) / Fold change /veh MAGEB2 (11727129_at) / RFU TMEM200A (11744735_a_at) / Fold change /veh TMEM200A (11744735_a_at) / RFU CCDC152 (11751479_a_at) / Fold change /veh CCDC152 (11751479_a_at) / RFU FAM211A (11726209_a_at) / Fold change /veh FAM211A (11726209_a_at) / RFU RGS16 (11746705_a_at) / Fold change /veh RGS16 (11746705_a_at) / RFU VCAN (11755009_s_at) / Fold change /veh VCAN (11755009_s_at) / RFU RHOB (11743442_s_at) / Fold change /veh RHOB (11743442_s_at) / RFU RGS16 (11720943_a_at) / Fold change /veh RGS16 (11720943_a_at) / RFU RGS16 (11720944_at) / Fold change /veh RGS16 (11720944_at) / RFU, VPS4B / Fold change vs veh, VPS4B / RFU, CREB1 / Fold change vs veh, CREB1 / RFU, DNAJC13 / Fold change vs veh, DNAJC13 / RFU, GNAQ / Fold change vs veh, GNAQ / RFU, CDK5R1 / Fold change vs veh, CDK5R1 / RFU, ZRANB3 / Fold change vs veh, ZRANB3 / RFU, CUL4A / Fold change vs veh, CUL4A / RFU, CCNY / Fold change vs veh, CCNY / RFU, UFL1 / Fold change vs veh, UFL1 / RFU, COG3 / Fold change vs veh, COG3 / RFU, DIAPH2 / Fold change vs veh, DIAPH2 / RFU, SKA2 / Fold change vs veh, SKA2 / RFU, AFF3 / Fold change vs veh, AFF3 / RFU, LMF1 / Fold change vs veh, LMF1 / RFU, IPO11 / Fold change vs veh, IPO11 / RFU, DFFB / Fold change vs veh, DFFB / RFU, FOXP1 / Fold change vs veh, FOXP1 / RFU, CARD8 / Fold change vs veh, CARD8 / RFU, STRN3 / Fold change vs veh, STRN3 / RFU, ADK / Fold change vs veh, ADK / RFU, RASSF2 / Fold change vs veh, RASSF2 / RFU, WIPF1 / Fold change vs veh, WIPF1 / RFU, LARP1B / Fold change vs veh, LARP1B / RFU, RASA1 / Fold change vs veh, RASA1 / RFU, RB1 / Fold change vs veh, RB1 / RFU, PPFIA1 / Fold change vs veh, PPFIA1 / RFU, MAT2A / Fold change vs veh, MAT2A / RFU, CCT5 / Fold change vs veh, CCT5 / RFU, WDR92 / Fold change vs veh, WDR92 / RFU, CUX1 / Fold change vs veh, CUX1 / RFU, TTC7A / Fold change vs veh, TTC7A / RFU, TMEM135 / Fold change vs veh, TMEM135 / RFU, DEPTOR / Fold change vs veh, DEPTOR / RFU, CPM / Fold change vs veh, CPM / RFU, DNAJB6 / Fold change vs veh, DNAJB6 / RFU, CACNA2D3 / Fold change vs veh, CACNA2D3 / RFU, DTX4 / Fold change vs veh, DTX4 / RFU, TFCP2 / Fold change vs veh, TFCP2 / RFU, GMCL1 /// GMCL1P1 / Fold change vs veh, GMCL1 /// GMCL1P1 / RFU, AEBP2 / Fold change vs veh, AEBP2 / RFU, SNHG1 /// SNORD22 /// SNORD25 /// SNORD26 /// SNORD27 /// SNORD28 /// SNORD29 /// SNORD31 / Fold change vs veh, SNHG1 /// SNORD22 /// SNORD25 /// SNORD26 /// SNORD27 /// SNORD28 /// SNORD29 /// SNORD31 / Fold change (Aza/veh), C12orf56 (ProbeSet 11735607_a_at) / Fold change (ACY-1035/veh), C12orf56 (ProbeSet 11735607_a_at) / Fold change (Aza/veh), FGFR1OP (ProbeSet 11751329_s_at) / Fold change (ACY-1035/veh), FGFR1OP (ProbeSet 11751329_s_at) / Fold change (Aza/veh), VPS36 (ProbeSet 11739960_a_at) / Fold change (ACY-1035/veh), VPS36 (ProbeSet 11739960_a_at) / RFU SYPL1 (11715823_x_at) / Fold change /veh SYPL1 (11715823_x_at) / RFU IGFBP7 (11715501_s_at) / Fold change /veh IGFBP7 (11715501_s_at) / RFU REEP3 (11722064_at) / Fold change /veh REEP3 (11722064_at) / RFU IGLL1 (11728026_x_at) / Fold change /veh IGLL1 (11728026_x_at): dose or concentration left out as unconfirmed
Settings: MV-4-11 cells, 48 hours

Structure (SMILES): Nc1ccc(-c2cccs2)cc1NC(=O)c1ccc2c(c1)cc(C1CC1)n2CCN1CCOCC1 [ACY-1035]
- Fold change /veh RCAN1 (11760418_a_at): 1.01
